Test results from patent US11911349B2, “Rapidly improving vascular conditions by administering vitamin K” (NATTOPHARMA AS, priority 2018, dated 2024).

What was measured:
ApoE/LDLR−/− mice [1] = assay: Example 3: nitrite and nitrate concentration in plasma, older mice; format: in vivo; details: eight weeks
ApoE/LDLR−/− mice [2] = assay: Example 3: histological assessment of area and composition of atherosclerotic plaque in BCA, older mice; format: in vivo; details: eight weeks; for decrease in vessel wall area (VWA): 24-week-old mice
Source text: For the determination of atherosclerotic plaque area and composition isolated brachiocephalic artery (BCA) was dissected, fixed in 4% buffered formalin, and embedded in paraffin. 5 μm-thick serial sections of BCA were collected from the proximal to distal part of the artery. Staining with Unna's orcein combined with Martius, Scarlet and Blue trichrome (OMSB) was applied on every tenth section (50 μm interval between each section) for quantitative analysis of atherosclerotic plaques. The areas of particular components of atherosclerotic plaque as well as artery lumen and wall were determined after Columbus-based software processing (FIG. 9) using specially-designed algorithm as described in Gajda M, Jasztal A, Banasik T, Jasek-Gajda E, Chlopicki S. Combined orcein and martius scarlet blue (OMSB) staining for qualitative and quantitative analyses of atherosclerotic plaques in brachiocephalic arteries in apoE/LDLR−/− mice. Histochem Cell Biol 2017. doi:10.1007/s00418-017-1538-8. The parameters analyzed include vessel wall area (VWA), internal vessel area (IVA=plaque area+lumen area), plaque area (expressed as percent of internal wall area: plaque/IWA), and lumen area (expressed as percent of internal wall area: lumen/IWA).

[3] = mouse, in vivo
ApoE/LDLR−/− mice [4] = assay: Example 2: nitrite and nitrate concentration in plasma (HPLC, ENO-20); format: in vivo; details: two months
Protocol: Blood samples were collected from heart into test tubes containing additional anticoagulant and centrifuged at 1000 g for 10 min at 4° C. The samples were used for HPLC measurement of nitrate (NO3−) and nitrite (NO2−) concentrations in plasma by an ENO-20 NOx Analyzer.

ApoE/LDLR−/− mice [5] = assay: Example 3: MRI assessment of FMD in femoral artery and Ach response in abdominal aorta, young mice; format: in vivo; details: for improvement in endothelial function compared with low dose (0.05 mg/kg) for 4 weeks: four weeks
Protocol: In a first part of the study, the effects of low doses (0.05 mg/kg b.w./day) as well as higher doses (0.5 mg/kg b.w./day and 5 mg/kg b.w./day) of vitamin K2 (MK-7, referred to in this example as simply “vitamin K2,” unless noted otherwise) on endothelial function in ApoE/LDLR−/−mice without well-established atherosclerotic plaque and with early phase of endothelial dysfunction were assessed.
Mice were randomly assigned to one of four experimental groups: control (untreated group) and three groups treated with vitamin K2 at a dose of 0.05, 0.5, and 5 mg/kg b.w./day, respectively. End-point measurements were performed at the age of 10-16 weeks.
Magnetic resonance imaging (MRI) experiments were performed using a 9.4T scanner (BioSpec 94/20 USR, Bruker, Germany) located in the Department of Magnetic Resonance Imaging, Institute of Nuclear Physics, Polish Academy of Sciences in Krakow. During the experiment, mice were anaesthetized using isoflurane (Aerrane, Baxter Sp. z o. o., Poland, 1.7 vol %) in an oxygen and air (1:2) mixture and imaged in the supine position. Activity of the heart, respiration, and body temperature (maintained at 37° C. using circulating warm water) were monitored using a Monitoring and Gating System (SA Inc., Stony Brook, N.Y., USA).
Endothelial function was assessed based on vascular responses to acetylcholine (Ach) administration in brachiocephalic artery (BCA), left common carotid artery (LCA) (FIGS. 6 A and B) and abdominal aorta (AA) (FIG. 6C) as well as to responses to increase in flow (flow-mediated dilatation, FMD) in femoral artery (FA) (FIG. 6D) as described in Bar A, Skorka T, Jasinski K, Sternak M, Bartel Ż, Tyrankiewicz U, et al. Retrospectively-gated MRI for in vivo assessment of endothelium-dependent vasodilatation and endothelial permeability in murine models of endothelial dysfunction. NMR Biomed 2016; 29(8):1088; Sternak M, Bar A, Adamski M G, Mohaissen T, Marczyk B, Kieronska A, et al. The Deletion of Endothelial Sodium Channel α (αENaC) Impairs Endothelium-Dependent Vasodilation and Endothelial Barrier Integrity in Endotoxemia in Vivo. Front Pharmacol 2018; 9:178. doi:10.3389/fphar.2018.00178; and Bar A, Olkowicz M, Tyrankiewicz U, Kus E, Jasinski K, Smolenski R T, et al. Functional and Biochemical Endothelial Profiling In Vivo in a Murine Model of Endothelial Dysfunction; Comparison of Effects of 1-Methylnicotinamide and Angiotensin-converting Enzyme Inhibitor. Front Pharmacol 2017; 8:183. doi:10.3389/fphar.2017.00183).
Vasomotor response was examined by comparing two time-resolved 3D images of the vessels prior to and 25 minutes after intraperitoneal Ach administration (Sigma-Aldrich, Poznan Poland: 50 μl, 16.6 mg/kg), as well as prior to and 5 minutes after vessel occlusion. Images were acquired using the cine IntraGate™ FLASH 3D sequence, reconstructed with the IntraGate 1.2.b.2 macro (Bruker). End-diastolic volumes of vessels were analyzed using ImageJ software 1.46r (NIH Bethesda, Md., USA) and scripts written in Matlab (MathWorks, Natick, Mass., USA). Imaging parameters included the following: repetition time (TR)—6.4 ms, echo time (TE)—1.4 ms, field of view (FOV)—30×30×5 mm3, matrix size—256×256×30, flip angle (FA)—30°, and number of accumulations (NA)—15, reconstructed to 7 cardiac frames. Total scan time was 10 minutes.

Structure (SMILES): CC(C)=CCC/C(C)=C/CC/C(C)=C/CC/C(C)=C/CC/C(C)=C/CC/C(C)=C/CC/C(C)=C/CC1=C(C)C(=O)c2ccccc2C1=O [MK-7, menaquinone-7]
- concentration of NO3− in plasma (ApoE/LDLR−/− mice [1]; 0.03 mg/kg b.w./day): did not change significantly
- concentration of NO3− in plasma (ApoE/LDLR−/− mice [1]; 10 mg/kg b.w./day): did not change significantly
- increase in NO2− concentration in plasma (ApoE/LDLR−/− mice [1]; high dose 10 mg/kg b.w./day): ~42%
- increase in NO2− concentration in plasma (ApoE/LDLR−/− mice [1]; low dose 0.03 mg/kg b.w./day): about 58%
- lumen area expressed as percent of IWA (ApoE/LDLR−/− mice [2]; high dose 10 mg/kg b.w./day): did not change
- plaque area expressed as percent of IWA (ApoE/LDLR−/− mice [2]; high dose 10 mg/kg b.w./day): did not change
- plaque size compared with non-treated mice (ApoE/LDLR−/− mice [2]; high dose 10 mg/kg b.w./day): not different
- decrease in vessel wall area (VWA) (ApoE/LDLR−/− mice [2]; high dose 10 mg/kg b.w./day): about 5%
- lumen area expressed as percent of IWA (ApoE/LDLR−/− mice [2]; low dose 0.03 mg/kg b.w./day): did not change
- plaque area expressed as percent of IWA (ApoE/LDLR−/− mice [2]; low dose 0.03 mg/kg b.w./day): did not change
- plaque size compared with non-treated mice (ApoE/LDLR−/− mice [2]; low dose 0.03 mg/kg b.w./day): not different
- decrease in vessel wall area (VWA) (ApoE/LDLR−/− mice [2]; low dose 0.03 mg/kg b.w./day): about 5%
- internal wall area (IWA) (ApoE/LDLR−/− mice [2]; lower dose, data not shown, not visible for entire vessel): decreased only in the middle part of the vessel
- K1 2,3-epoxide plasma concentration [3]: tent to decrease
- vitamin K1 plasma concentration [3]: tent to decrease
- concentration of MK4 2,3-epoxide in plasma ([3]; 5 mg/kg/day): maintained at similar level
- plasma concentration of K2 (MK-7) ([3]; 5 mg/kg/day): dose-dependent increase
- plasma concentration of MK-4 ([3]; 5 mg/kg/day): dose-dependent increase
- concentration of NO3− in plasma (ApoE/LDLR−/− mice [4]; 0.03 mg/kg b.w./day): did not change significantly
- concentration of NO3− in plasma (ApoE/LDLR−/− mice [4]; 10 mg/kg b.w./day): did not change significantly
- Ach response in AA, volume changes (ApoE/LDLR−/− mice [5]; 0.05 mg/kg b.w./day, eight weeks, untreated −16.22%, p=0.05): −0.65%
- magnitude of endothelium-dependent response to acetylcholine in abdominal aorta (ACH-AA) (ApoE/LDLR−/− mice [5]; 0.05 mg/kg b.w./day, two weeks): lack of changes
- magnitude of vasodilatation in response to increase in flow in femoral artery (FMD-FA) (ApoE/LDLR−/− mice [5]; 0.05 mg/kg b.w./day, two weeks): lack of changes
- improvement in endothelial function compared with low dose (0.05 mg/kg) for 4 weeks (ApoE/LDLR−/− mice [5]; 0.5 mg/kg b.w./day): not superior
- improvement in endothelial function compared with low dose (0.05 mg/kg) for 4 weeks (ApoE/LDLR−/− mice [5]; 5 mg/kg b.w./day): not superior
- Ach response in AA, volume changes (ApoE/LDLR−/− mice [5]; 5 mg/kg b.w./day, two weeks, untreated −7.72%, p=0.1): 0.16%
